These results are taken from ChEMBL document CHEMBL1938264, “Novel 3,4-isoxazolediamides as potent inhibitors of chaperone heat shock protein 90” (J Med Chem, 2011).

Active and inactive are the calls of the source. No cut-off for these calls is given here. Some results are limits rather than exact numbers.

Series [1] addresses T1, Heat shock protein HSP 90-beta (Homo sapiens, UniProt P08238). The series is described as follows: Inhibition of Hsp90 in human A431 cells assessed as reduction in Akt protein expression after 24 hrs by Western blot analysis. It is filed as cell-based. As to conditions: A-431.
Series [2] has as its target T1, Heat shock protein HSP 90-beta. The series is described as follows: Inhibition of Hsp90 in human A431 cells assessed as reduction in EGFR protein expression after 24 hrs by Western blot analysis. The format is cell-based. Particulars: A-431.
For series [3] the target is unchanged. Kind of series: Inhibition of Hsp90 in human A431 cells assessed as reduction in CDK4 protein expression after 24 hrs by Western blot analysis. The format is cell-based. As to conditions: A-431.
Series [4] has the same target. Kind of series: Inhibition of Hsp90 in human A431 cells assessed as increase in Hsp70 protein expression at 0.11 to 0.8 uM after 24 hrs by Western blot analysis. It is filed as cell-based. Particulars: A-431.
The next series concerns NCI-H460. Kind of series: Cytotoxicity against human NCI-H460 after 72 hrs by sulforhodamine B assay. The format is functional, cell-based. Particulars: NCI-H460, 72 h.
Series [5] concerns the target T1, Heat shock protein HSP 90-beta. The series is described as follows: Binding affinity to Hsp90 after 4 hrs by fluorescence polarization assay.
Series [6] has the same target. Kind of series: Inhibition of Hsp90 in human A431 cells assessed as increase in Hsp70 protein expression at 0.011 to 0.9 uM after 24 hrs by Western blot analysis. The format is cell-based. As to conditions: A-431.
Series [7] shares this target. Kind of series: Inhibition of Hsp90 in human A431 cells assessed as increase in Hsp70 protein expression at 0.00493 to 1.2 uM after 24 hrs by Western blot analysis. It is filed as cell-based. As to conditions: A-431.
Series [8] has the same target. Kind of series: Inhibition of Hsp90 in human A431 cells assessed as increase in Hsp70 protein expression at 0.01 to 0.814 uM after 24 hrs by Western blot analysis. The format is cell-based. Particulars: A-431.
Another series deals with A-431. The series is described as follows: Antitumor activity against human A431 cells xenografted in CD1 Harlan mouse assessed as tumor volume inhibition at 60 mg/kg, ip qd administered for 5 days. The format is functional. Particulars: A-431, ip, 120 h, route intraperitoneal.
Series [9] concerns Mus musculus. The series is described as follows: Toxicity in human A431 cells xenografted CD1 Harlan mouse assessed as body weight loss at 60 mg/kg, ip qd administered for 5 days. It is filed as organism-based, A-431. Details: dose 60 mg/kg, route intraperitoneal. Particulars: in vivo, 120 h.
Series [10] is described as follows: Toxicity in human A431 cells xenografted ip dosed CD1 Harlan mouse. It is filed as organism-based, A-431. As to conditions: in vivo.
Series [11] relates to Mus musculus. Kind of series: Degradation of EGFR in human A431 cells xenografted in CD1 Harlan mouse at 60 mg/kg, ip qd administered for 5 days measured 2 hrs post-last dose by Western blot analysis. The format is functional, organism-based. Details: dose 60 mg/kg. Particulars: A-431.
In series [12] the test system is Mus musculus. Kind of series: Degradation of Akt in human A431 cells xenografted in CD1 Harlan mouse at 60 mg/kg, ip qd administered for 5 days measured 2 hrs post-last dose by Western blot analysis. Details: dose 60 mg/kg. Particulars: A-431. It is filed as functional, organism-based.
Series [13] concerns Mus musculus. The series is described as follows: Degradation of CDK4 in human A431 cells xenografted in CD1 Harlan mouse at 60 mg/kg, ip qd administered for 5 days measured 2 hrs post-last dose by Western blot analysis. As to conditions: A-431. Details: dose 60 mg/kg. The format is functional, organism-based.
Series [14] concerns Mus musculus. Kind of series: Increase of Hsp70 expression in human A431 cells xenografted in CD1 Harlan mouse at 60 mg/kg, ip qd administered for 5 days measured 2 hrs post-last dose by Western blot analysis. Details: dose 60 mg/kg. As to conditions: A-431. It is filed as functional, organism-based.
The target of series [15] is T1, Heat shock protein HSP 90-beta. The series is described as follows: Inhibition of Hsp90 in human A431 cells assessed as increase in Hsp70 protein expression at 0.0031 to 0.8 uM after 24 hrs by Western blot analysis. The format is cell-based. Particulars: A-431.
Series [16] shares this target. The series is described as follows: Inhibition of Hsp90 in human A431 cells assessed as increase in Hsp70 protein expression at 0.075 to 1.2 uM after 24 hrs by Western blot analysis. The format is cell-based. As to conditions: A-431.

T1 sequence (P08238 whole entry): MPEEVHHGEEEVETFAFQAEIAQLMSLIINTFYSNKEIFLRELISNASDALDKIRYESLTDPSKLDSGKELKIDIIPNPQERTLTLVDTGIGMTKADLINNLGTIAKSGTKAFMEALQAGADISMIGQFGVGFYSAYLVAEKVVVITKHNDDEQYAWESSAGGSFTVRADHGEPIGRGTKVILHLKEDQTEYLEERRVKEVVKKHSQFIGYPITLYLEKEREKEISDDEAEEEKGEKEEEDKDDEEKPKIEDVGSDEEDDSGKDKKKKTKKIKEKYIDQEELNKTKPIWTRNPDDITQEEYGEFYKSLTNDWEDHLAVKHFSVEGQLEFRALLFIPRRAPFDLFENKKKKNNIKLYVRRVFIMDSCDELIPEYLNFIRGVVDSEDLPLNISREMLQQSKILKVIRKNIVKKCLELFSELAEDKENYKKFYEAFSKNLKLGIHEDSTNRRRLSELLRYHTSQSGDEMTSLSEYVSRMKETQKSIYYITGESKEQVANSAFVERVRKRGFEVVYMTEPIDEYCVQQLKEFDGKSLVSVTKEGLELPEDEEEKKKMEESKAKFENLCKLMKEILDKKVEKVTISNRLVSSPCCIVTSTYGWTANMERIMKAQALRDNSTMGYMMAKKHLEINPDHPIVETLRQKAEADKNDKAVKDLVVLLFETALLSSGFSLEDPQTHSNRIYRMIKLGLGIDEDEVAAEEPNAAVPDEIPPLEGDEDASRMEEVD

`CCNC(=O)c1noc(-c2cc(C(C)C)c(O)cc2O)c1NC(=O)c1sccc1C`: the inhibition entry in series [1], in series [2] and in [3] was “Dose-dependent effect” in each case. Besides, in series [4], the inhibition entry was “Active”. Moreover, the half-inhibitory concentration (IC50) in the series with NCI-H460 worked out at 17 nM; in series [5], 84 nM.

Take `CCNC(=O)c1noc(-c2cc(C(C)C)c(O)cc2O)c1NC(=O)[C@H]1CC[C@@H](OC)CC1`: the inhibition result in series [1], in [2] and in series [3] was “Dose-dependent effect” throughout. Moreover, the figures for the IC50 (in the series with NCI-H460; in series [5]) were 13 nM and 24 nM, respectively. In addition, the inhibition result in [6] is “Active”.

On to `CCNC(=O)c1noc(-c2cc(C(C)C)c(O)cc2O)c1NC(=O)C1CCCCC1`, for which the inhibition result in series [1], in [2] and in series [3] was “Dose-dependent effect” throughout. Also, the IC50 in the series on NCI-H460 turned out to be 16 nM; in series [5] it was 190 nM. For the same compound, the inhibition result in series [7] was “Active”.

For the compound `CCNC(=O)c1noc(-c2cc(C(C)C)c(O)cc2O)c1NC(=O)c1cc(CC)on1`, the inhibition entry in series [1], in series [2] and in [3] was “Dose-dependent effect” throughout. The inhibition result in series [8] is “Active”. Further, the IC50 in the series with NCI-H460 came to 22 nM; in series [5], 20 nM.

On to `CCNC(=O)c1noc(-c2cc(C(C)C)c(O)cc2O)c1-c1ccc(CN2CCOCC2)cc1` [LUMINESPIB], for which, in the series on A-431, the inhibition in vivo at 60 mg/kg worked out at 48%. Further, the Activity with Mus musculus [9] came to 8%. For the same compound, the MTD in series [10] is 60 mg/kg. Moreover, in the series on NCI-H460, the IC50 came to 2.4 nM.

For `CCNC(=O)c1noc(-c2cc(C(C)C)c(O)cc2O)c1NC(=O)c1cc(CN2CCOCC2)on1`, the inhibition in vivo at 60 mg/kg in the series on A-431 was found to be 48%. Moreover, the Activity in the series with Mus musculus [9] is on record as 7%. For the same compound, the outcome with Mus musculus [11], in the series on Mus musculus [12], in the series with Mus musculus [13] and in the series on Mus musculus [14] was Active. This compound displayed an MTD in [10] of 60 mg/kg. Moreover, the IC50 is 200 nM in the series with NCI-H460 and 40 nM in [5].

On to `CCNC(=O)c1noc(-c2cc(C(C)C)c(O)cc2O)c1NC(=O)C(C)(C)C`, for which the inhibition entry in series [1], in [2] and in series [3] was “Dose-dependent effect” in each case. Also, the IC50 in the series with NCI-H460 worked out at 24 nM; in [5], 41 nM. Further, the inhibition result in series [15] is “Active”.

On to `CCNC(=O)c1noc(-c2cc(C(C)C)c(O)cc2O)c1NC(=O)c1ccc(CN2CCOCC2)cc1`, for which the inhibition result in series [1], in [2] and in series [3] was “Dose-dependent effect” in each case. Also, the inhibition in vivo at 60 mg/kg in the series with A-431 stood at 33%. Moreover, the Activity in the series with Mus musculus [9] came to 2%. Further, the MTD in series [10] was found to be 60 mg/kg. Further, the IC50 is 95 nM with NCI-H460 and 71 nM in series [5]. In addition, the inhibition result in [16] is “Active”.

As to `CCNC(=O)c1noc(-c2cc(C(C)C)c(O)cc2O)c1NC(=O)c1ccc(N2CCN(C)CC2)cc1`, the IC50 was over 1000 nM in the series on NCI-H460 and 24 nM in series [5].

Turning to `CCNC(=O)c1noc(-c2cc(C(C)C)c(O)cc2O)c1NC(=O)[C@H]1CC[C@@H](C(N)=O)CC1`, the IC50 in the series with NCI-H460 is 990 nM; in series [5], under 5 nM.

In the case of `CCNC(=O)c1noc(-c2cc(C(C)C)c(O)cc2O)c1NC(=O)c1ccc2ccn(C)c2c1`, the IC50 in the series on NCI-H460 came out at 87 nM; in series [5] it was 34 nM.

Regarding `CCNC(=O)c1noc(-c2cc(C(C)C)c(O)cc2O)c1NC(=O)[C@H]1CC[C@H](CN2CCOCC2)CC1`, the results for the IC50 (in the series on NCI-H460; in series [5]) were 130 nM and 8.8 nM, respectively.

On to `CCNC(=O)c1noc(-c2cc(C(C)C)c(O)cc2O)c1NC(=O)c1nc(C)c(-c2ccc(F)cc2)s1`, for which the IC50 in the series on NCI-H460 was over 1000 nM; in [5], 40 nM.

Take `CCCCC[C@H]1CC[C@H](C(=O)Nc2c(C(=O)NCC)noc2-c2cc(C(C)C)c(O)cc2O)CC1`: the IC50 with NCI-H460 was over 1000 nM; in series [5], 260 nM.

Consider `C=CC(=O)Nc1c(C(=O)NCC)noc1-c1cc(Cl)c(O)cc1O`, for which the IC50 was over 1000 nM with NCI-H460 and 167 nM in [5].

Turning to `CCNC(=O)c1noc(-c2cc(Cl)c(O)cc2O)c1NC1CCCCC1`, the figures for the IC50 (with NCI-H460; in series [5]) were over 1000 nM and 620 nM, respectively.
